Source: patent US20080227643A1, “Use of adjuvants to improve abscisic acid analog and abscisic acid derivative performance” (priority 2007, published 2008)
“And” between values parts separate entries of the source, which are not always exact repeats. Equal entries are not always repeated.

Test system: tomato leaf transpiration
Test: tomato leaf transpiration inhibition bioassay (foliar application, porometer)
Type: in vivo, Tomato (variety: Rutgers)
Details: 25 ppm ABA analog foliar applied; for Transpiration rate (% of control): 20 mL/6 plants
Procedure: ABA analog effectiveness may be measured experimentally by quantifying the inhibition of transpiration in tomato leaves; this is a reliable laboratory bioassay of the level of ABA activity.
All the research studies were conducted in the greenhouse at the research farm of Valent BioSciences Corporation (Long Grove, Ill.). Tomato (variety: Rutgers) seeds were sown in 18-cell flats filled with Promix PGX (available from Premier Horticulture Inc. Quakertown, Pa.) three weeks for germination and initial growth. Plants were then transplanted into pots (18 cm in diameter and 18 cm in height) filled with Promix BX (available from Premier Horticulture Inc. Quakertown, Pa.) and grown for one or two more weeks before treatment, depending on greenhouse temperature. During growing periods, plants received daily irrigation and weekly fertilizer (1 g/L all purpose fertilizer 20-20-20, The Scotts Company, Marysville, Ohio).
Chemical solutions were prepared with distilled water. ABA analogs, 8′ acetylene-ABA, acid (PBI-524) and 8′ acetylene-ABA methyl ester (PBI-429) were available from Plant Biotechnology Institute, National Research Council of Canada (Saskatoon, Saskatchewan, Canada). 25 ppm PBI-429 or 25 ppm PBI-524 was prepared by dissolving 25 mg chemical in 1 L distilled water.
Tween 20 and Brij 98 were available from Uniqema (New Castle, Del.). Silwet L-77 was available from GE Silicones (Wilton, Conn.). Agral 90 was available from Norac Concept. Inc. (Orleans, Ontario, Canada). Kinetic was available from Setre Chemical Company (Memphis, Tenn.). Capsil was available from Aquatrols (Paulsboro, N.J.). Urea and ammonium nitrate (NH4NO3) were available from Sigma-Aldrich (St. Louis, Mo.). Ethyl lactate was available from Fluka Chemie (GmbH, Buchs, Germany). Surfactant was added to 250-ppm ABA or 25-ppm ABA analogs at the concentration of 0.05% or 0.5% (v/v). Since Brij 98 was a waxy substance and difficult to dissolve in water, a stock solution of 25% Brij 98 was prepared by dissolving 25 g Brij 98 in 75 g ethyl lactate and this solution was easily dissolve in water.
Chemical solutions were foliar applied to tomato plant leaves at the rate of 20 mL/6 plants. Plants were then placed in a transparent chamber with humidity controlled at relative humidity 40 to 60%. […] The transpiration rate of each treatment was calculated as the percentage of that of control at each day to reduce day-to-day variation caused by changes of environmental condition such as light intensity and temperature.
All experiments were randomized complete block experimental design. Data were analyzed by analysis of variance. Duncan's new multiple range tests at α=0.05 were used for mean separations.

[1] = average over 7 days (days 1, 2, 3, 4, 7)

Structure (SMILES)	Transpiration rate (% of control) (1 day after treatment)	Transpiration rate (% of control) (2 days after treatment)	Transpiration rate (% of control) (3 days after treatment)	Transpiration rate (% of control) (4 days after treatment)	Transpiration rate (% of control) (7 days after treatment)	Transpiration rate (% of control), Average (average of days 1, 2, 3 (Table 11))	Transpiration rate (% of control), Average [1]
C#CC1(C)CC(=O)C=C(C)C1(O)/C=C/C(C)=C\C(=O)OC (stereo not shown) [PBI-429, 8′ acetylene-ABA methyl ester]	102 % of control and 81 % of control and 77 % of control	87 % of control and 64 % of control and 60 % of control	86 % of control and 69 % of control and 71 % of control	77.52 % of control and 78 % of control and 81 % of control and 77 % of control	95 % of control and 73 % of control	70 % of control	74 % of control
C#CC1(C)CC(=O)C=C(C)C1(O)C=CC(C)=CC(=O)O (stereo not shown) [PBI-524, 8′ acetylene-ABA, acid]	95 % of control and 81 % of control	87 % of control and 63 % of control	93 % of control and 69 % of control	92 % of control and 79 % of control	101 % of control and 91 % of control		77 % of control
